Values after ≈ are worked out from the molar mass of the structure shown.
Assays:
Assay type in all cases: cell-based
[1] = tested on: Candida albicans IFO 1385; experiment: Minimum inhibitory concentration (agar dilution method) of miconazole in the presence or absence of BE-31405, Candida albicans IFO 1385; conditions: for MIC of miconazole: yeast morphology agar, 37° C., 2 days
[2] = tested on: Candida albicans IFO 1270; experiment: Minimum inhibitory concentration (agar dilution method) of itraconazole in the presence and absence of BE-31405, Candida albicans IFO 1270; conditions: for MIC of intraconazole: 37° C., 2 days
Method: (§1) Now, the minimum inhibitory concentrations (MIC, by an agar dilution method) of itraconazole against Candida albicans IFO 1270, IFO 1385 and ATCC90028 in the presence and absence of BE-31405, are shown in Tables 3, 4 and 5, respectively. As the agar medium for the measurement of MIC, a culture medium having 1% of glucose and 1.2% of agar added to a yeast nitrogen base, manufactured by Difico Co., was used, and after inoculation of the strain solution, culturing was carried out at 37° C. for 2 days, whereupon the concentration at which no growth of the strain was observed, was judged to be MIC.

[3] = tested on: Candida albicans ATCC 90028; experiment: Minimum inhibitory concentration (agar dilution method) of itraconazole in the presence and absence of BE-31405, Candida albicans ATCC 90028; conditions: for MIC of intraconazole: 37° C., 2 days
Method: as §1

[4] = tested on: Candida albicans IFO 1385; experiment: Minimum inhibitory concentration (agar dilution method) of itraconazole in the presence and absence of BE-31405, Candida albicans IFO 1385; conditions: for MIC of intraconazole: 37° C., 2 days
Method: as §1

[5] = BE-31405 0.0 μg/ml (absence), yeast nitrogen base, 1% glucose, 1.2% agar
[6] = itraconazole combined with BE-31405, IFO 1270 (Table 3)
[7] = with BE-31405 0.025 μg/ml, yeast nitrogen base agar
[8] = with BE-31405 0.1 μg/ml, yeast nitrogen base agar
[9] = with BE-31405 0.39 μg/ml, yeast nitrogen base agar
[10] = itraconazole combined with BE-31405, ATCC 90028 (Table 5)
[11] = with BE-31405 0.05 μg/ml, yeast nitrogen base agar
[12] = itraconazole combined with BE-31405, IFO 1385 (Table 4)

Clc1ccc(COC(Cn2ccnc2)c2ccc(Cl)cc2Cl)c(Cl)c1 (stereo not drawn) [miconazole] was tested, and the MIC of miconazole ([1]; BE-31405 0.0 μg/ml (absence)) was 12.5 µg/mL, the “antifungal activities of miconazole in the presence of a low concentration of BE-31405” value ([1]; in the presence of a low concentration of BE-31405) was “substantially enhanced” and the “fractional inhibitory concentration index” value ([1]; miconazole combined with BE-31405) was 0.2. The “effect of combined use” value ([1]; miconazole combined with BE-31405, judged from fractional inhibitory concentration index) was “synergistic effect”, the MIC of miconazole ([1]; with BE-31405 0.1 μg/ml) was 1.56 µg/mL and the MIC of miconazole ([1]; with BE-31405 0.2 μg/ml) was 0.78 µg/mL. For the same compound, the MIC of miconazole ([1]; with BE-31405 0.39 μg/ml) was 0.39 µg/mL and the MIC of miconazole ([1]; with BE-31405 0.78 μg/ml) was 0.05 µg/mL.

CC(=O)OC1C2OC3(OCC45CC6C(C)CCC6C6(C=O)CC4C=C(C(C)C)C65C(=O)O)OC2OC1C3O (stereo not drawn) [BE-31405] gave an MIC ([1]; Candida albicans, IFO1385, 48 h, BE31405 alone under this test condition (Table 2)) of 1.56 µg/mL (≈ 2.93 µM), an MIC ([2]; Candida albicans, IFO1270, 48 h, BE31405 alone under this test condition (Table 3)) of 0.78 µg/mL (≈ 1.46 µM) and an MIC ([3]; Candida albicans, ATCC90028, 48 h, BE31405 alone under this test condition (Table 5)) of 1.56 µg/mL (≈ 2.93 µM). The MIC ([4]; Candida albicans, IFO1385, 48 h, BE31405 alone under this test condition (Table 4)) was 1.56 µg/mL (≈ 2.93 µM).

With CCC(C)n1ncn(-c2ccc(N3CCN(c4ccc(OCC5COC(Cn6cncn6)(c6ccc(Cl)cc6Cl)O5)cc4)CC3)cc2)c1=O (stereo not drawn) [itraconazole] the MIC of intraconazole [2, 5] was greater than 100 µg/mL, the “effect of combined use” value [2, 6] was “strong synergistic effects” and the “fractional inhibitory concentration index” value [2, 6] was “at most 0.2”. The “antifungal activities of itraconazole in the presence of a low concentration of BE-31405” value (“antifungal activities of itraconazole” for short) ([2]; low concentration of BE-31405, IFO 1270 (Table 3)) was “substantially enhanced”, the MIC of intraconazole ([2]; with BE-31405 0.006 μg/ml, yeast nitrogen base agar) was 0.05 µg/mL and the MIC of intraconazole [2, 7] was 0.013 µg/mL. The MIC of intraconazole [2, 8] was 0.013 µg/mL, the MIC of intraconazole [2, 9] was 0.013 µg/mL and the MIC of intraconazole [3, 5] was greater than 100 µg/mL. For the same compound, the “effect of combined use” value [3, 10] was “strong synergistic effects”, the “fractional inhibitory concentration index” value [3, 10] was “at most 0.2” and the “antifungal activities of itraconazole” value ([3]; low concentration of BE-31405, ATCC 90028 (Table 5)) was “substantially enhanced”. For the same compound, the MIC of intraconazole [3, 7] was 1.56 µg/mL, the MIC of intraconazole [3, 11] was 0.2 µg/mL and the MIC of intraconazole [3, 8] was 0.2 µg/mL. The MIC of intraconazole [3, 9] was 0.1 µg/mL, the MIC of intraconazole [4, 5] was greater than 100 µg/mL and the “effect of combined use” value [4, 12] was “strong synergistic effects”. For the same compound, the “fractional inhibitory concentration index” value [4, 12] was “at most 0.2”, the “antifungal activities of itraconazole” value ([4]; low concentration of BE-31405, IFO 1385 (Table 4)) was “substantially enhanced” and the MIC of intraconazole [4, 7] was 1.56 µg/mL. For the same compound, the MIC of intraconazole [4, 11] was 0.2 µg/mL, the MIC of intraconazole [4, 8] was 0.1 µg/mL and the MIC of intraconazole [4, 9] was 0.05 µg/mL.
